# Laboratory results reported in ChEMBL document CHEMBL1201862, “PubChem BioAssay data set” (2004).
#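 Grown in 96-well plates, cells were treated for 48 hours with each compound at five concentrations. Insufficient inhibition: endpoint recorded as highest concentration tested. At the GI50, growth is halved.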 Active and inactive are the calls of the source. Cut-off read from the data, not from the text of the source: active = GI50 up to about 1.1 µM and inactive = higher. Peptide text beside a SMILES is read from it. * marks the point of attachment. Cbz = O=C(OCc1ccccc1)*; Boc = CC(C)(C)OC(=O)*; OBn = c1ccc(CO*)cc1
# Columns and labels:
# Experiment in all cases: NCI anticancer screen, dose series, 48 h
# [1] = system: RPMI-8226
# [2] = system: SK-MEL-5
# [3] = system: NCI-H460
# [4] = system: SF-539
# [5] = system: SR
# [6] = system: COLO 205
# [7] = system: K562
# [8] = system: SNB-19
# [9] = system: SK-MEL-28
# [10] = system: LOX IMVI
# [11] = system: NCI/ADR-RES
# [12] = system: HCT-15
# [13] = system: DU-145
# [14] = system: MOLT-4
# [15] = system: MDA-MB-435
# [16] = system: NCI-H522
# [17] = system: SN12C
# [18] = system: HL-60
# [19] = system: SF-295
# [20] = system: Malme-3M
# [21] = system: Hs-578T
# [22] = system: MDA-MB-231
# [23] = system: UO-31
# [24] = system: EKVX
# [25] = system: UACC-62
# [26] = system: OVCAR-4
# [27] = system: A498
# [28] = system: NCI-H226
# [29] = system: HCT-116
# [30] = system: SW-620
# [31] = system: HT-29
# [32] = system: OVCAR-5
# [33] = system: OVCAR-8
# [34] = system: M14
# [35] = system: CCRF-CEM
# [36] = system: T47D
# [37] = system: SK-OV-3
# [38] = system: ACHN
# [39] = system: 786-0
# [40] = system: UACC-257
# [41] = system: NCI-H23
# [42] = system: OVCAR-3
# [43] = system: SF-268
# [44] = system: A549
# [45] = system: IGROV-1
# [46] = system: PC-3
# [47] = system: TK-10
# [48] = system: MCF7
# [49] = system: KM12
# [50] = system: SNB-75
# [51] = system: U-251
# [52] = system: HOP-92
# [53] = system: SK-MEL-2
# [54] = system: HOP-62
# [55] = system: BT-549
# [56] = system: CAKI-1
# [57] = system: MDA-N
# [58] = system: RXF 393
compound,measurement,setting,value
CC(C)=CCNc1ncnc2c1c(C#N)cn2C1OC(CO)C(O)C1O (configuration not stated),GI50,[1],3.56 µM (inactive)
same,GI50,[2],21.7 µM (inactive)
same,GI50,[3],4.02 µM (inactive)
same,GI50,[4],> 72.1 µM (inactive)
same,GI50,[5],5.45 µM (inactive)
same,GI50,[6],0.716 µM (active)
same,GI50,[7],3.86 µM (inactive)
same,GI50,[8],> 53.8 µM (inactive)
same,GI50,[9],> 100 µM (inactive)
same,GI50,[10],> 79.8 µM (inactive)
same,GI50,[11],> 82 µM (inactive)
same,GI50,[12],0.603 µM
same,GI50,[13],10.9 µM (inactive)
same,GI50,[14],65.2 µM (inactive)
same,GI50,[15],31.1 µM (inactive)
same,GI50,[16],7.64 µM (inactive)
same,GI50,[17],12.7 µM (inactive)
same,GI50,[18],9.12 µM (inactive)
same,GI50,[19],> 100 µM (inactive)
same,GI50,[20],> 77.6 µM (inactive)
same,GI50,[21],56.9 µM (inactive)
same,GI50,[22],33.7 µM (inactive)
same,GI50,[23],32.8 µM (inactive)
same,GI50,[24],10.4 µM (inactive)
same,GI50,[25],39.7 µM (inactive)
same,GI50,[26],1.1 µM (active)
same,GI50,[27],24 µM (inactive)
same,GI50,[28],39.2 µM (inactive)
same,GI50,[29],4.61 µM (inactive)
same,GI50,[30],10 µM (inactive)
same,GI50,[31],12.3 µM (inactive)
same,GI50,[32],> 66.2 µM (inactive)
same,GI50,[33],50.7 µM (inactive)
same,GI50,[34],> 58.3 µM (inactive)
same,GI50,[35],3.85 µM (inactive)
same,GI50,[36],0.0386 µM (active)
same,GI50,[37],16.9 µM (inactive)
same,GI50,[38],9.82 µM (inactive)
same,GI50,[39],> 100 µM (inactive)
same,GI50,[40],> 100 µM (inactive)
same,GI50,[41],> 56.5 µM (inactive)
same,GI50,[42],3.66 µM (inactive)
same,GI50,[43],> 100 µM (inactive)
same,GI50,[44],8.32 µM (inactive)
same,GI50,[45],0.431 µM (active)
same,GI50,[46],32.5 µM (inactive)
same,GI50,[47],1.21 µM (inactive)
same,GI50,[48],< 0.019 µM (active)
same,GI50,[49],1.36 µM (inactive)
same,GI50,[50],75.7 µM (inactive)
same,GI50,[51],> 67.5 µM (inactive)
same,GI50,[52],24.3 µM (inactive)
same,GI50,[53],39.7 µM (inactive)
same,GI50,[54],53.1 µM (inactive)
same,GI50,[55],> 100 µM (inactive)
same,GI50,[56],73.8 µM (inactive)
same,GI50,[57],42.1 µM (inactive)
same,GI50,[58],71.1 µM (inactive)
C[N+]1(CCC(=O)c2ccco2)CC2CCC(CC2)C1 (configuration not stated),GI50,[1],> 100 µM (inactive)
same,GI50,[2],> 100 µM (inactive)
same,GI50,[3],> 100 µM (inactive)
same,GI50,[4],> 100 µM (inactive)
same,GI50,[5],> 100 µM (inactive)
same,GI50,[6],> 100 µM (inactive)
same,GI50,[7],> 100 µM (inactive)
same,GI50,[8],> 100 µM (inactive)
same,GI50,[9],> 100 µM (inactive)
same,GI50,[10],> 100 µM (inactive)
same,GI50,[11],> 100 µM (inactive)
same,GI50,[12],> 100 µM
same,GI50,[13],> 100 µM (inactive)
same,GI50,[14],> 100 µM (inactive)
same,GI50,[15],> 100 µM (inactive)
same,GI50,[16],> 100 µM (inactive)
same,GI50,[17],> 100 µM (inactive)
same,GI50,[19],> 100 µM (inactive)
same,GI50,[20],> 100 µM (inactive)
same,GI50,[21],> 100 µM (inactive)
same,GI50,[22],> 100 µM (inactive)
same,GI50,[23],> 100 µM (inactive)
same,GI50,[24],> 100 µM (inactive)
same,GI50,[25],> 100 µM (inactive)
same,GI50,[26],> 100 µM (inactive)
same,GI50,[27],> 100 µM (inactive)
same,GI50,[28],> 100 µM (inactive)
same,GI50,[29],> 100 µM (inactive)
same,GI50,[30],> 100 µM (inactive)
same,GI50,[31],> 100 µM (inactive)
same,GI50,[32],> 100 µM (inactive)
same,GI50,[33],> 100 µM (inactive)
same,GI50,[34],> 100 µM (inactive)
same,GI50,[36],> 100 µM (inactive)
same,GI50,[38],> 100 µM (inactive)
same,GI50,[39],> 100 µM (inactive)
same,GI50,[40],> 100 µM (inactive)
same,GI50,[41],> 100 µM (inactive)
same,GI50,[42],> 100 µM (inactive)
same,GI50,[43],> 100 µM (inactive)
same,GI50,[44],> 100 µM (inactive)
same,GI50,[45],> 100 µM (inactive)
same,GI50,[46],> 100 µM (inactive)
same,GI50,[47],> 100 µM (inactive)
same,GI50,[48],> 100 µM (inactive)
same,GI50,[49],> 100 µM (inactive)
same,GI50,[50],> 100 µM (inactive)
same,GI50,[51],> 100 µM (inactive)
same,GI50,[52],> 100 µM (inactive)
same,GI50,[53],> 100 µM (inactive)
same,GI50,[55],> 100 µM (inactive)
same,GI50,[56],> 100 µM (inactive)
same,GI50,[57],> 100 µM (inactive)
same,GI50,[58],> 100 µM (inactive)
COC(=O)C(CCCCNC(=O)OCc1ccccc1)NC(=O)C(CCC(=O)OCc1ccccc1)NC(=O)OC(C)(C)C (configuration not stated) (Boc-Glu(OBn)-Lys(Cbz)-OMe; configuration not given here),GI50,[1],> 100 µM (inactive)
same,GI50,[2],> 100 µM (inactive)
same,GI50,[3],> 10 µM (inactive)
same,GI50,[4],> 100 µM (inactive)
same,GI50,[5],> 100 µM (inactive)
same,GI50,[6],> 100 µM (inactive)
same,GI50,[7],> 100 µM (inactive)
same,GI50,[8],40.2 µM (inactive)
same,GI50,[9],64 µM (inactive)
same,GI50,[10],> 100 µM (inactive)
same,GI50,[11],> 100 µM (inactive)
same,GI50,[12],> 100 µM
same,GI50,[13],> 100 µM (inactive)
same,GI50,[14],> 100 µM (inactive)
same,GI50,[15],> 100 µM (inactive)
same,GI50,[16],56.9 µM (inactive)
same,GI50,[17],> 100 µM (inactive)
same,GI50,[18],> 100 µM (inactive)
same,GI50,[19],64.4 µM (inactive)
same,GI50,[20],54.3 µM (inactive)
same,GI50,[21],27.7 µM (inactive)
same,GI50,[22],73.6 µM (inactive)
same,GI50,[23],> 100 µM (inactive)
same,GI50,[24],> 100 µM (inactive)
same,GI50,[25],43 µM (inactive)
same,GI50,[26],57.3 µM (inactive)
same,GI50,[27],16.1 µM (inactive)
same,GI50,[28],> 100 µM (inactive)
same,GI50,[29],> 100 µM (inactive)
same,GI50,[30],> 100 µM (inactive)
same,GI50,[31],> 100 µM (inactive)
same,GI50,[32],> 100 µM (inactive)
same,GI50,[33],> 100 µM (inactive)
same,GI50,[34],> 100 µM (inactive)
same,GI50,[36],> 100 µM (inactive)
same,GI50,[37],46.6 µM (inactive)
same,GI50,[38],> 100 µM (inactive)
same,GI50,[39],> 100 µM (inactive)
same,GI50,[41],> 100 µM (inactive)
same,GI50,[42],73.1 µM (inactive)
same,GI50,[43],> 100 µM (inactive)
same,GI50,[44],> 100 µM (inactive)
same,GI50,[45],> 100 µM (inactive)
same,GI50,[46],> 100 µM (inactive)
same,GI50,[47],> 100 µM (inactive)
same,GI50,[48],> 100 µM (inactive)
same,GI50,[49],> 100 µM (inactive)
same,GI50,[50],> 100 µM (inactive)
same,GI50,[51],> 100 µM (inactive)
same,GI50,[52],> 100 µM (inactive)
same,GI50,[54],15 µM (inactive)
same,GI50,[55],> 100 µM (inactive)
same,GI50,[56],86.7 µM (inactive)
same,GI50,[57],> 100 µM (inactive)
same,GI50,[58],> 100 µM (inactive)
